According to patent publication US20120142028A1, “[…] […] ANTI-CANCER RESPONSE TO EPIDERMAL GROWTH FACTOR RECEPTOR KINASE INHIBITORS” (OSI Pharmaceuticals, LLC, priority 2009, published 2012):
Several values for one entry are separate records, joined by “and”; a condition that tells them apart may be missing. Identical values can stand only once. Entries after “also recorded” stand apart in the source; their conditions may differ.

System: patients who had had progression after standard chemotherapy for non-small-cell lung cancer
Assay: NCIC CTG BR.21 Phase 3 trial of TARCEVA vs placebo; survival and PFS by tumor E-cadherin/vimentin IHC status
Type: in vivo, human
Settings: for Hazard Ratio (H/L) (95% CI) / Median Survival / Median PFS: Erlotinib arm; for Hazard Ratio (95% CI): Erlotinib vs. Placebo; for Median PFS: progression free survival
Procedure: The NCIC CTG. BR.21 study was a Phase 3 trial of TARCEVA® involving patients who had had progression after standard chemotherapy for non-small-cell lung cancer (i.e. 2nd and 3rd line NSCLC; Shepherd F A, et al. N Engl. J. Med 2005; 353:123-132.). Patients were randomly assigned in a 2:1 ratio to receive 150 mg of TARCEVA® (erlotinib HCl) daily or placebo. The primary end point was overall survival. Progression free survival and response were secondary end points. Separate written consent was obtained for optional tissue banking and correlative studies.
Because the BR21 trial is one of the few TARCEVA® clinical trials that includes a large number of patients and an untreated placebo group, it is optimally designed to evaluate the predictive and prognostic potential of biomarkers. As such, the potential of vimentin and E-cadherin protein expression to serve as a predictive biomarker for overall survival and […] was assessed using remaining tumor samples from the BR21 study. IHC analysis of tumor tissue samples received from NCIC was used to determine E-Cadherin and vimentin protein expression. Sensitivity analyses were performed to determine optimal cut points for E-Cadherin and vimentin staining for classification of E-Cadherin and vimentin as “High” or “Low” for use as prognostic and/or predictive markers for survival and progression-free survival. Further analyses were performed to evaluate possible correlations of biomarker status with clinical outcomes of survival, progression-free survival, response and disease control.
Stained slides were scored by an experienced pathologist. Slides were first evaluated for quality of tissue and quality of staining Acceptable slides were then evaluated, with the pathologist generating an ‘H-1-score’ based on a subjective interpretation of the staining intensity of the chromagen labeled antibody. Four intensity levels were used in scoring the stained sections: 0 for no staining, +1 for weak or minimal staining, +2 for moderate staining, and +3 for strong staining. The relative percentage of total target cells expressing an intensity level is recorded as data.
Treatment groups as randomized (ITT population) were analyzed using all patients with evaluable tissue. Disease progression as assessed by the investigator was used for PFS (Progression Free Survival) analysis. Potential predictive benefit of E-Cadherin or vimentin expression was assessed by comparing trends in the hazard ratios. No treatments by biomarker interaction tests were performed. Three Scoring Methods were used for E-Cadherin and Vimentin: • 1. % Any Staining of tumor cells • 2. % of tumor cell Staining of Intensity +2 or +3 • 3. Composite Score Example: A sample read as 5% unstained, 35% staining of intensity +1, 45% staining of intensity +2, and 15% staining of intensity +3, would be scored as follows: • 95% any staining • 60% staining of intensity +2 or +3 • 0(5)+1(35)+2(45)+3(15)=Composite Score of 170 Overall survival is defined as the time from the study treatment start date to the date of death. If the patient receives the study treatment but the patient is still alive or a death date is unavailable, overall survival is calculated as the difference between the study treatment start date and the last date the patient was known to be alive. […] Progression free survival (PFS) is defined as the time from the study treatment start date to the documentation date of disease progression or the death date. As with overall survival, if no progression/death date is available, the PFS is calculated as the time from the study treatment start date to the last documented tumor assessment date, and is noted to be “censored”.
Table 6 illustrates the numbers of patients in each treatment arm who were E-Cadherin high vs. low, and vimentin high vs. low for the subset of patients for whom E-Cadherin and vimentin results were available (N=95). P-values are determined from univariate Kaplan-Meier analyses. […]

[1] = overall survival, E-Cadherin High
[2] = overall survival, E-Cadherin Low
[3] = overall survival, E-Cadherin/Vimentin High/High
[4] = overall survival, E-Cadherin/Vimentin High/Low
[5] = overall survival, E-Cadherin/Vimentin Low/High
[6] = overall survival, E-Cadherin/Vimentin Low/Low
[7] = overall survival, Patients with Known E-Cadherin Results
[8] = overall survival, Patients with Known Vimentin Results
[9] = overall survival, Vimentin High

C#Cc1cccc(Nc2ncnc3cc(OCCOC)c(OCCOC)cc23)c1 [Erlotinib, [6,7-bis(2-methoxyethoxy)-4-quinazolin-4-yl]-(3-ethynylphenyl)amine]
Kaplan-Meier overall survival, Erlotinib arm compared to Placebo arm (E-Cadherin high subset (FIG. 3)): more favorable
Kaplan-Meier progression free survival, Erlotinib arm compared to Placebo arm (E-Cadherin high subset (FIG. 4)): more favorable
Kaplan-Meier overall survival, Erlotinib arm compared to Placebo arm (E-Cadherin low subset (FIG. 3)): switched in direction but smaller in magnitude
Kaplan-Meier progression free survival, Erlotinib arm compared to Placebo arm (E-Cadherin low subset (FIG. 4)): switched in direction but smaller in magnitude
Kaplan-Meier overall survival, E-Cadherin high subset compared to E-Cadherin low subset (Erlotinib arm (FIG. 3)): more favorable
Kaplan-Meier progression free survival, E-Cadherin high subset compared to E-Cadherin low subset (Erlotinib arm (FIG. 4)): more favorable
Kaplan-Meier overall survival, vimentin high subset compared to vimentin low subset (Erlotinib arm (FIG. 5)): more favorable; also recorded: longer
Kaplan-Meier progression free survival, vimentin high subset compared to vimentin low subset (Erlotinib arm (FIG. 6)): more favorable; also recorded: longer
Hazard Ratio (H/L) (95% CI) (PFS, E-Cadherin High vs. E-Cadherin Low (cut-point 40% staining of intensity +2 or +3)): 0.571 and 0.57
Hazard Ratio (H/L) (95% CI) (PFS, Vimentin High vs. Vimentin Low): 0.43
Hazard Ratio (95% CI) (PFS, All Patients): 0.64
Hazard Ratio (95% CI) (PFS, E-Cadherin High): 0.52
Hazard Ratio (95% CI) (PFS, E-Cadherin Low): 1.18
Hazard Ratio (95% CI) (PFS, E-Cadherin/Vimentin High/High): 0.235
Hazard Ratio (95% CI) (PFS, E-Cadherin/Vimentin High/Low): 0.73
Hazard Ratio (95% CI) (PFS, E-Cadherin/Vimentin Low/High): 0.24
Hazard Ratio (95% CI) (PFS, E-Cadherin/Vimentin Low/Low): 2.75
Hazard Ratio (95% CI) (PFS, Patients with Known E-Cadherin Results): 0.72
Hazard Ratio (95% CI) (PFS, Patients with Known Vimentin Results): 0.72
Hazard Ratio (95% CI) (PFS, Vimentin High): 0.28
Hazard Ratio (95% CI) (PFS, Vimentin Low): 1.11
Median Survival (overall survival, All Patients): 6.67 Months
Median Survival [1]: 11.3 Months
Hazard Ratio (H/L) (95% CI) (overall survival, E-Cadherin High vs. E-Cadherin Low (cut-point 40% staining of intensity +2 or +3)): 0.682 and 0.68
Median Survival [2]: 4.86 Months
Median Survival [3]: 10.38 Months
Median Survival [4]: 12.06 Months
Median Survival [5]: 10.7 Months
Median Survival [6]: 4.81 Months
Median Survival [7]: 8.44 Months
Median Survival [8]: 8.44 Months
Median Survival [9]: 10.55 Months
Hazard Ratio (H/L) (95% CI) (overall survival, Vimentin High vs. Vimentin Low): 0.65
Median Survival (overall survival, Vimentin Low): 6.11 Months
Hazard Ratio (95% CI) (overall survival, All Patients): 0.76
Hazard Ratio (95% CI) [1]: 0.47
Hazard Ratio (95% CI) [2]: 1.12
Hazard Ratio (95% CI) [3]: 0.31
Hazard Ratio (95% CI) [4]: 0.57
Hazard Ratio (95% CI) [5]: 0.26
Hazard Ratio (95% CI) [6]: 2.44
Hazard Ratio (95% CI) [7]: 0.69
Hazard Ratio (95% CI) [8]: 0.69
Hazard Ratio (95% CI) [9]: 0.26
Hazard Ratio (95% CI) (overall survival, Vimentin Low): 0.99
Median PFS (All Patients): 2.23 Months
Median PFS (E-Cadherin High): 3.68 Months
Median PFS (E-Cadherin Low): 1.97 Months
Median PFS (E-Cadherin/Vimentin High/High): 8.02 Months
Median PFS (E-Cadherin/Vimentin High/Low): 2.66 Months
Median PFS (E-Cadherin/Vimentin Low/High): 3.61 Months
Median PFS (E-Cadherin/Vimentin Low/Low): 1.69 Months
Median PFS (Patients with Known E-Cadherin Results): 2.38 Months
Median PFS (Patients with Known Vimentin Results): 2.38 Months
Median PFS (Vimentin High): 5.39 Months
Median PFS (Vimentin Low): 2.18 Months
survival when treated with TARCEVA (subset of treated patients with high E-cadherin expression): longer survival
survival when treated with TARCEVA (subset of treated patients with high vimentin expression): significantly longer survival
Kaplan-Meier overall survival, Erlotinib arm compared to Placebo arm (vimentin high subset (FIG. 5)): more favorable
Kaplan-Meier progression free survival, Erlotinib arm compared to Placebo arm (vimentin high subset (FIG. 6)): more favorable
Kaplan-Meier overall survival, Erlotinib arm compared to Placebo arm (vimentin low subset (FIG. 5)): no difference
Kaplan-Meier progression free survival, Erlotinib arm compared to Placebo arm (vimentin low subset (FIG. 6)): no difference
